Test: Rat pharmacokinetics, IV imatinib mesylate vs IT imatinib free base/cyclodextrin (Example 9)
Format: in vivo, Sprague Dawley rats
Conditions: IV data, 60 min collection period
Method: Lung tissue and blood were collected for analysis.
Experimental Design and Execution: In brief, after the animals were transferred to study, all animals were randomly assigned to treatment groups per the study design below. Animals were treated either via intravenous (IV) administration of formulation R1, or via intratracheal (IT) administration for formulation R2 of the test article.
Averages for each time point are reported for groups/time points that have a minimum of 2 animals.
The Therapeutic Advantage (Rd) in Table 8 was calculated using the following equation: […]

Cc1ccc(NC(=O)c2ccc(CN3CCN(C)CC3)cc2)cc1Nc1nccc(-c2cccnc2)n1 [imatinib free base, imatinib]
tissue distribution lung vs plasma: preferentially accumulates in the lung tissue

— US20260007666A1 (INAYA THERAPEUTICS, INC., priority 2022, published 2026)
